Measurements as given in PubChem BioAssay AID248 (DTP/NCI, 2004).
Toxic doses and inconclusive results are not listed. No stated cut-off is given here; in the data, active means T/C of 150% or more; inactive means T/C below 125%.

Test system: L1210 leukemia ip in BDF1 mice, survival T/C
Assay: NCI In Vivo Anticancer Drug Screen. Data for tumor model L1210 Leukemia (intraperitoneal) in B6D2F1 (BDF1) mice
Details: endpoint: mean survival time, higher = longer survival
How it was run: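 Each compound was tested against a transplantable tumor grown in mice. The endpoint was survival, with treated animals benchmarked against vehicle controls as a simple ratio.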

[1] = dose: 75.0 mg/kg/injection, schedule: Q01DX001 (ip), vehicle: saline
[2] = dose: 100.0 mg/kg/injection, schedule: Q04DX003 (ip), vehicle: saline with Tween-80
[3] = dose: 200.0 mg/kg/injection, schedule: Q04DX003 (ip), vehicle: saline with Tween-80

Measured: T/C

COc1ccc2nc(-c3ccc(C)cc3)cc(C(=O)O)c2c1
inactive: dose: 100.0 mg/kg/injection, schedule: Q01DX001 (ip), vehicle: saline 92 % of control | dose: 100.0 mg/kg/injection, schedule: Q04DX003 (ip), vehicle: saline 96 % of control | dose: 200.0 mg/kg/injection, schedule: Q01DX001 (ip), vehicle: saline 106 % of control | dose: 200.0 mg/kg/injection, schedule: Q04DX003 (ip), vehicle: saline 94 % of control | dose: 400.0 mg/kg/injection, schedule: Q01DX001 (ip), vehicle: saline 88 % of control | dose: 400.0 mg/kg/injection, schedule: Q04DX003 (ip), vehicle: saline 97 % of control

Cc1nnnn1C12CC3CC(CC(C3)C1)C2
inactive: dose: 18.8 mg/kg/injection, schedule: Q01DX001 (ip), vehicle: saline 110 % of control | dose: 37.5 mg/kg/injection, schedule: Q01DX001 (ip), vehicle: saline 100 % of control | [1] 105 % of control

O=C(O)c1scc2c1CCCC2
inactive: [2] 97 % of control | [3] 87 % of control

O=C(Nc1cc(NC(=O)Oc2ccccc2)cc([N+](=O)[O-])c1)Oc1ccccc1
inactive: [2] 96 % of control | [3] 103 % of control | dose: 400.0 mg/kg/injection, schedule: Q04DX003 (ip), vehicle: saline with Tween-80 88 % of control

COc1ccc(OC)c(NC(=O)NNC(=O)c2ccc(Cl)cc2)c1
inactive: dose: 25.0 mg/kg/injection, schedule: Q01DX009 (ip), vehicle: saline with Tween-80 95 % of control | dose: 50.0 mg/kg/injection, schedule: Q01DX009 (ip), vehicle: saline with Tween-80 94 % of control | dose: 100.0 mg/kg/injection, schedule: Q01DX009 (ip), vehicle: saline with Tween-80 92 % of control

O=C(O)c1ccccc1Cc1ccccc1
inactive: dose: 100.0 mg/kg/injection, schedule: Q04DX002 (ip), vehicle: Klucel (hydroxypropylcellulose) (HPC) 94 % of control | dose: 200.0 mg/kg/injection, schedule: Q04DX002 (ip), vehicle: Klucel (hydroxypropylcellulose) (HPC) 98 % of control | dose: 400.0 mg/kg/injection, schedule: Q04DX002 (ip), vehicle: Klucel (hydroxypropylcellulose) (HPC) 100 % of control

CC12CCC(CC(=O)O1)C2(C)C (stereo unspecified)
inactive: [1] 114 % of control
